Reference: patent US12528814B2, “Bifunctional degraders of interleukin-1 receptor-associated kinases and therapeutic use thereof” (NURIX THERAPEUTICS, INC., priority 2020, dated 2026)
“Also recorded” adds a separate entry of the source. Where two headings read alike, the source gives them in different places.

What was measured:
Ikaros = Ikaros (Homo sapiens (Human), UniProt Q13422+Q96SW2); test: Flow Cytometry-Based Assay for Ikaros Degradation; format: cell-based; settings: 24 hours; for DC50: Jurkat cells (Clone E6-1); for Ikaros (CRBN neosubstrate) degradation, in words: Jurkat cells
Protocol: (§1) Flow Cytometry-Based Assay for Aiolos and Ikaros Degradation
(§2) Jurkat cells (Clone E6-1) were treated with DMSO or compound for 24 hours and then fixed and permeabilized using a Foxp3/Transcription Factor Fixation/Permeabilization Kit (eBioscience, cat. no. 00-5523). Cells were stained with fluorophore-conjugated antibodies against Ikaros (Biolegend 368414) and Aiolos (Biolegend, cat. no. 371106). An additional set of DMSO-treated cells was stained with fluorophore-conjugated isotype control antibodies (Biolegend, cat. no. 400254 and 400136). Stained cells were run on an Attune N×T Acoustic Focusing Flow Cytometer (Thermo-Fisher, cat. no. A29004), and data was analyzed using FlowJo (v10.5.3) and GraphPad Prism (v7.00) software. Single cells were gated, and the geometric mean fluorescence intensities (MFIs) of Ikaros and Aiolos were calculated. The MFI of the isotype control was calculated for each analyte and used to quantify background staining. Percent Ikaros or Aiolos degradation was calculated for each compound-treated sample using the following equation: % Degradation=[…]

IRAK4 = IRAK4 (Homo sapiens (Human), UniProt Q9NWZ3); test: IRAK4 Biochemical HTRF Kinase Assay
In short: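 HTRF KinEASE STK S1 format measuring IRAK4 phosphorylation of biotinylated peptide; reaction solution of 5 μM STK-S1, 10 mM ATP, 10 mM MgCl2 added (stock, to 10 μl final), 90 min at ambient temperature, detection 60 min. IC50 from sixteen-point duplicate curves by non-linear regression.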

IRAK1 = IRAK1 (Homo sapiens (Human), UniProt P51617); test: Western Assay for IRAK1 Degradation; format: cell-based; settings: wild-type Jurkat cells, 4 hrs
Protocol: Biological Example 4 Western Assay for IRAK4, IRAK1 and GSPT1 Degradation
DMSO was stamped into wells A12-H12 at 500 nL/well (NC, Negative Control, maximum signal). […] Following incubation, plates were centrifuged for 5 min at 1600 rpm. Media was removed and cell pellets were lysed in 50 μL lysis buffer (RIPA buffer (Fisher, PI89901), cOmplete Mini EDTA-free protease inhibitor (Sigma 11836170001), Protease Inhibitor Cocktail (Sigma, P2714), Phosphatase Inhibitor Cocktail 2 and 3 (Sigma, P5726 and P0044), Benzonase (Sigma, E1014)). Cells were lysed overnight at −20° C. Plates were centrifuged for 5 min at 1600 rpm and lysate supernatants were transferred to storage plates. Protein levels were determined by BCA Assay performed according to manufacturer's protocol (EMD Millipore, cat. no. 71285-3). Samples were combined with (4×) LDS Sample Buffer and (10×) Reducing Agent and H2O to equally load 10 ug protein per lane of a 26-well NuPAGE 4-12% Bis-Tris protein gel (1.0 mm, Thermo cat. no. NP0326). Samples were separated by running gels at constant 200 V in NuPAGE MES SDS Running Buffer. Following electrophoresis, proteins were transferred to nitrocellulose membranes using an iBlot Gel Transfer Device and iBlot Gel Transfer Stacks (Thermo cat. no. IB21001 and IB301001) and transfer method PO (20V 1 min, 23V 4 min, 25V 2 min). Membranes were blocked for 1 hr in 5% milk solution (TBS (0.2% Tween-20)).
Following blocking, membranes were incubated with primary antibody overnight at 4° C. with gentle shaking. The primary antibodies and dilutions used were as follows: IRAK4—abcam ab3200612, 1:500; IRAK1—Cell Signaling Technologies D51G7 #4504, 1:500; GSPT1—Cell Signaling Technologies #14980, 1:500). Blots were washed 3× in TBS (0.2% Tween-20), 5-10 min per wash. Following washes, blots were incubated in secondary HRP-conjugated antibody (Promega anti-Rabbit IgG (H+L) HRP, cat. no. W4011), 1:5000 in 5% milk solution (TBS (0.2% Tween-20)), for 1 hr at room temperature with gentle shaking. Blots were washed 3× in TBS (0.2% Tween-20), 5-10 min per wash. Blots were incubated with 1:1 mix of ECL reagents 1 & 2 (Amersham ECL Western Blotting Detection Reagent, cat. no. RPN2106) for 2-3 min at room temperature. Bands were visualized using a Protein Simple imager. Blots were then re-probed with a combination of anti-actin antibody (Sigma Monoclonal Mouse Anti-3-Actin (clone AC-15), cat. no. A5441) and secondary HRP-conjugated antibody (Promega anti-Mouse IgG (H+L) HRP, cat. no. W4021) and similar steps were taken for incubation, wash, detection and visualization steps as above. The data was analyzed using Alpha View software. The densitometric reading for each sample band was normalized to that of the corresponding actin band per lane.

Aiolos = Aiolos (Homo sapiens (Human), UniProt Q96SW2+Q9UKT9); test: Flow Cytometry-Based Assay for Aiolos Degradation; format: cell-based; settings: 24 hours; for DC50: Jurkat cells (Clone E6-1); for Aiolos (CRBN neosubstrate) degradation, in words: Jurkat cells
Protocol: as §1, §2

Jurkat cells = test: Viability Assay (Celltiter-Glo); format: cell-based; settings: Homo sapiens, 4 hrs, read-out: Viability assessment EC50
Protocol: Viability Assay (Celltiter-Glo)
DMSO was stamped into empty wells at 60 nL/well (NC, Negative Control, maximum signal). […] Following incubation, the CellTiter-Glo assay was performed according to manufacturer's instructions (Promega CellTiter-Glo Luminescent Cell Viability Assay, cat. no. G7570).

[1] = Table 2, CRBN-targeting compounds, read-out: IRAK4 biochemical IC50
[2] = Table 3, VHL-targeting compounds, read-out: IRAK4 biochemical IC50
[3] = Table 4, read-out: IRAK4 HTRF biochemical: IC50
[4] = Table 5, multiple runs, read-out: IRAK4 HTRF biochemical: IC50

Sequence of IRAK1 (P51617 whole entry): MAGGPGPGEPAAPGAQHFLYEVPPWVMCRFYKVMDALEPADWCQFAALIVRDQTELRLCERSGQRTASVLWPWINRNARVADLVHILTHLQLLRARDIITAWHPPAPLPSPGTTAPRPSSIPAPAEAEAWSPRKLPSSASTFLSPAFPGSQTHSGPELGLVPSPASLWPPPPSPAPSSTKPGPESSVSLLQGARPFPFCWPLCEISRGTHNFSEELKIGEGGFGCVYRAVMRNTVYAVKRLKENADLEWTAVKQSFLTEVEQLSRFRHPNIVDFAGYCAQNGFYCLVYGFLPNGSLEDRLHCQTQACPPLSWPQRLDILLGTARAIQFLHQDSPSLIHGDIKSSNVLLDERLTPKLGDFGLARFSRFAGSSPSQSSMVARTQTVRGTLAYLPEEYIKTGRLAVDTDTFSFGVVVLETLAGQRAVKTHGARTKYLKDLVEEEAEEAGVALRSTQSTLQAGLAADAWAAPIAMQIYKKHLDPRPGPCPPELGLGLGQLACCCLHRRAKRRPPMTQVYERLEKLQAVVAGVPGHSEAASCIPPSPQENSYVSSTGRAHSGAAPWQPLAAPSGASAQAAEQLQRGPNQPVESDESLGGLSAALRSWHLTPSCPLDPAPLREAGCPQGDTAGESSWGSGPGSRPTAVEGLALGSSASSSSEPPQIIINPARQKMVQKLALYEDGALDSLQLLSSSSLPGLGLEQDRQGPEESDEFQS
Sequence of Aiolos (Q9UKT9 whole entry): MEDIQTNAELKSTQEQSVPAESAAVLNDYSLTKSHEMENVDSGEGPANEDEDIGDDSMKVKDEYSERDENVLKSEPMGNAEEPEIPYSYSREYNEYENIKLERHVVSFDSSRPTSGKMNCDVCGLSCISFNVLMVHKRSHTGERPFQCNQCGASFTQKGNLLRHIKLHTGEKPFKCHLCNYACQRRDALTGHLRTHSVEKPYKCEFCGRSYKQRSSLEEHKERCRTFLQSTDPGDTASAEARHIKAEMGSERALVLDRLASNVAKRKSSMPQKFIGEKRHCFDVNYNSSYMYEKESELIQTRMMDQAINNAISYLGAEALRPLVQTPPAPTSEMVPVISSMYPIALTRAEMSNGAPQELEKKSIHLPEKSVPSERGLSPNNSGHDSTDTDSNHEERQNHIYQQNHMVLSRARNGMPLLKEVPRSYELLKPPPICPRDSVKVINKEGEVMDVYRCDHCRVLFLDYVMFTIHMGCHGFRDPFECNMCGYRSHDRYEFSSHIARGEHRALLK
Sequence of Aiolos (Q96SW2 whole entry): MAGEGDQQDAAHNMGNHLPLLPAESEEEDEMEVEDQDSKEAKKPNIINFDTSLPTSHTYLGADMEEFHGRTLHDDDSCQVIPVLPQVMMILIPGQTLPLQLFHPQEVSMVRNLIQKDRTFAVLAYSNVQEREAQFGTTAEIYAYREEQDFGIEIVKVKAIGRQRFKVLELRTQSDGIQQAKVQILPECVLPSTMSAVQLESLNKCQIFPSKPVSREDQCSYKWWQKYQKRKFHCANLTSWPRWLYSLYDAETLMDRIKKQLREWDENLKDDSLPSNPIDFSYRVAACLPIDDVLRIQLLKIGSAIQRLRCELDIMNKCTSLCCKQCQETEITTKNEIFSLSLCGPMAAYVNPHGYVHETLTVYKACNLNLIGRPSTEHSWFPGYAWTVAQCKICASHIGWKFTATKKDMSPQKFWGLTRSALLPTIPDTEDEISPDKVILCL
Sequence of Aiolos (Q16531 whole entry partner): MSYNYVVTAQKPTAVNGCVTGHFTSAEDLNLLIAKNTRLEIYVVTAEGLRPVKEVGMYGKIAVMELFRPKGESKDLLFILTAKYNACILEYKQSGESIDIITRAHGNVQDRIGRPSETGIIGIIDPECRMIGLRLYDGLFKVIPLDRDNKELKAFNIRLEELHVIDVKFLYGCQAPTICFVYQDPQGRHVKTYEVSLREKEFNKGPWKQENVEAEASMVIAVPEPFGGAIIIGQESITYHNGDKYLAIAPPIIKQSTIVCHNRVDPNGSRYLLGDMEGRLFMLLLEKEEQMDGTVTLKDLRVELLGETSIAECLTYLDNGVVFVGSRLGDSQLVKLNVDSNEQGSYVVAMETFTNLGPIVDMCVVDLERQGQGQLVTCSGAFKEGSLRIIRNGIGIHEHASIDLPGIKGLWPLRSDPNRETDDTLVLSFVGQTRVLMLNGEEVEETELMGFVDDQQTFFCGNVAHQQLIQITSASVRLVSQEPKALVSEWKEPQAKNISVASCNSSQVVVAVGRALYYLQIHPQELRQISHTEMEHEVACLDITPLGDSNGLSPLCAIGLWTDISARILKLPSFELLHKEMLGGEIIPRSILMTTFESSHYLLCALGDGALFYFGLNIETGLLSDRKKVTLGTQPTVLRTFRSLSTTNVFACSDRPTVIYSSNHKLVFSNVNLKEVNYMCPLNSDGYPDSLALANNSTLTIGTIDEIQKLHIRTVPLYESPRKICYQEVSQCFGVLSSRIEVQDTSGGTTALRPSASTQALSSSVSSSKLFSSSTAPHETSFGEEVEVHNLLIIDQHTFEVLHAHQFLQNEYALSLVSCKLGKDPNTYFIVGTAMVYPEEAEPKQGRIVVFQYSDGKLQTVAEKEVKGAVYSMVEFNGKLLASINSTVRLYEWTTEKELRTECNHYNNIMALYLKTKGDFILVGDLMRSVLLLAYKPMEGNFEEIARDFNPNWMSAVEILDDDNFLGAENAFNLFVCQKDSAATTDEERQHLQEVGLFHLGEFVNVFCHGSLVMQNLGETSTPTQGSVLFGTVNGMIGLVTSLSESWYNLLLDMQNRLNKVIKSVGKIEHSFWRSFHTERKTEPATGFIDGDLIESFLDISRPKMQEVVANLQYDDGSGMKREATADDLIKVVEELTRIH
Sequence of IRAK4 (Q9NWZ3 whole entry, species assumed): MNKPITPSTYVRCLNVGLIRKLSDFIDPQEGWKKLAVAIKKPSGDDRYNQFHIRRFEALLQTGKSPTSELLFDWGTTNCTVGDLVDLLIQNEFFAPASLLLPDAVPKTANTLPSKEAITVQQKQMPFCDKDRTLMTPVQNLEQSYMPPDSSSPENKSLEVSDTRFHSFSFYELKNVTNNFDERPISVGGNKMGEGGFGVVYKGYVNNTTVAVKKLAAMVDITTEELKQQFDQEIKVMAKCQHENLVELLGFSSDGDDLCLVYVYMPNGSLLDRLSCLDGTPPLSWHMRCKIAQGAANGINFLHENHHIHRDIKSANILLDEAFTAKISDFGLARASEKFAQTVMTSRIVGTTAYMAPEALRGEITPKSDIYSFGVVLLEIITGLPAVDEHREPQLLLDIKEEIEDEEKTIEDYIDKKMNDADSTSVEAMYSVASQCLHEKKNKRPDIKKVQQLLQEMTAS
Sequence of Ikaros (Q13422 whole entry): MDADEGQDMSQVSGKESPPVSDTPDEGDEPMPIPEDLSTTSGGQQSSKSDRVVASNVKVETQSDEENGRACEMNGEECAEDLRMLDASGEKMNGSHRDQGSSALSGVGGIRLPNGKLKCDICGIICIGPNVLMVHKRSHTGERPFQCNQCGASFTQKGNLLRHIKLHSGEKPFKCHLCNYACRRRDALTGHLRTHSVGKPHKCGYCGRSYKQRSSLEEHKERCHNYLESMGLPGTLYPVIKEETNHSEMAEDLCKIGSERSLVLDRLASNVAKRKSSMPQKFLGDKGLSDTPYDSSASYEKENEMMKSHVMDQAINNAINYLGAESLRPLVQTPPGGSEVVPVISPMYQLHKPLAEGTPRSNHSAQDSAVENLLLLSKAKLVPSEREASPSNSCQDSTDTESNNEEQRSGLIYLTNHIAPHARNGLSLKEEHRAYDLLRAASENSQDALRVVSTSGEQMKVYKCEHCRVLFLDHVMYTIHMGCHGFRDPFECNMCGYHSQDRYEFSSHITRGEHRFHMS
Sequence of Ikaros (Q96SW2 whole entry): as the sequence (Q96SW2 whole entry) above
Sequence of Ikaros (Q16531 whole entry partner): as the sequence (Q16531 whole entry partner) above

SMILES | DC50 (Ikaros) [nM] | IC50 (IRAK4; [1]) [nM] | DC50 (IRAK1) [nM] | DC50 (Aiolos) [nM] | EC50 (Jurkat cells) [nM] | IC50 (IRAK4; [2]) [nM] | IC50 (IRAK4; [3]) [nM] | IC50 (IRAK4; [4]) [nM] | Ikaros (CRBN neosubstrate) degradation, in words (Ikaros) | Aiolos (CRBN neosubstrate) degradation, in words (Aiolos)
NC(=O)c1nn(-c2ccc(C(=O)NCCOCCOCCNc3cccc4c3C(=O)N(C3CCC(=O)NC3=O)C4=O)cc2)cc1NC(=O)c1coc(-c2ccnc(NCC(F)(F)F)c2)n1 (stereo not drawn) [Comparative Compound a2, reference compound] | 20 | 1.2 | > 10000 | 20 | > 10000 |  |  |  | induced neosubstrate degradation; also recorded: degraded both Ikaros and Aiolos | induced neosubstrate degradation; also recorded: degraded both Ikaros and Aiolos
CC[C@@H]1[C@H](F)C(=O)N[C@@H]1COc1ncc(C#CCN2CCC3(CC2)CCN(c2ncc(C(=O)N[C@H](C(=O)N4C[C@H](O)C[C@H]4C(=O)NCc4ccc(-c5scnc5C)cc4)C(C)(C)C)cn2)CC3)c2cc(C(N)=O)c(OC)cc12 [Comparative b1, reference compound] | > 5000 |  | > 10000 | > 5000 | > 10000 | 2.3 |  |  |  | 
CC(C)Nc1cc(-c2ccc3cc(C#N)cnn23)ncc1-c1nnc(N2CCN(C(=O)C3CCN(Cc4ccc5c(c4)C(=O)N(C4CCC(=O)NC4=O)C5=O)CC3)CC2)s1 (stereo not drawn) [Example 13, 7-(5-(5-(4-(1-((2-(2,6-dioxopiperidin-3-yl)-1,3-dioxoisoindolin-5-yl)methyl)piperidine-4-carbonyl)piperazin-1-yl)-1,3,4-thiadiazol-2-yl)-4-(isopropylamino)pyridin-2-yl)pyrrolo[1,2-b]pyridazine-3-carbonitrile] | > 5000 | 0.5 | > 10000 | > 5000 | > 10000 |  | 0.5 | 0.8 | none of Compounds 13, 24, 47, and 35 displayed neosubstrate degradation | none of Compounds 13, 24, 47, and 35 displayed neosubstrate degradation

Further lines, with some results ahead:

DC50 (Ikaros) [nM] | IC50 (IRAK4; [1]) [nM] | DC50 (IRAK1) [nM] | DC50 (Aiolos) [nM] | EC50 (Jurkat cells) [nM] | IC50 (IRAK4; [2]) [nM] | IC50 (IRAK4; [3]) [nM] | IC50 (IRAK4; [4]) [nM] | SMILES | Ikaros (CRBN neosubstrate) degradation, in words (Ikaros) | Aiolos (CRBN neosubstrate) degradation, in words (Aiolos)
> 5000 | 0.6 | > 10000 | > 5000 | > 10000 |  | 0.6 | 0.6 | CC(C)Nc1cc(-c2ccc3cc(C#N)cnn23)ncc1-c1nnc(N2CCN(C(=O)C3CCN(CC4CCN(c5ccc(-c6nn(C7CCC(=O)NC7=O)c(=O)n6C)cc5)CC4)CC3)CC2)s1 (stereo not drawn) [Example 24, 7-(5-(5-(4-(1-((1-(4-(1-(2,6-dioxopiperidin-3-yl)-4-methyl-5-oxo-4,5-dihydro-1H-1,2,4-triazol-3-yl)phenyl)piperidin-4-yl)methyl)piperidine-4-carbonyl)piperazin-1-yl)-1,3,4-thiadiazol-2-yl)-4-(isopropylamino)pyridin-2-yl)pyrrolo[1,2-b]pyridazine-3-carbonitrile] | none of Compounds 13, 24, 47, and 35 displayed neosubstrate degradation | none of Compounds 13, 24, 47, and 35 displayed neosubstrate degradation
> 5000 |  | > 10000 | > 5000 | > 10000 | 5.2 | 5.2 | 5.2 | Cc1ncsc1-c1ccc(CNC(=O)[C@@H]2C[C@@H](O)CN2C(=O)[C@@H](NC(=O)CCCC(=O)N2CCN(c3nnc(-c4cnc(-c5ccc6cc(C#N)cnn56)cc4NC(C)C)s3)CC2)C(C)(C)C)cc1 [Example 35, (2S,4R)-1-((S)-2-(5-(4-(5-(6-(3-cyanopyrrolo[1,2-b]pyridazin-7-yl)-4-(isopropylamino)pyridin-3-yl)-1,3,4-thiadiazol-2-yl)piperazin-1-yl)-5-oxopentanamido)-3,3-dimethylbutanoyl)-4-hydroxy-N-(4-(4-methylthiazol-5-yl)benzyl)pyrrolidine-2-carboxamide] | none of Compounds 13, 24, 47, and 35 displayed neosubstrate degradation | none of Compounds 13, 24, 47, and 35 displayed neosubstrate degradation
> 5000 |  | > 10000 | > 5000 | > 10000 | 7.3 | 7.3 | 5.8 | Cc1ncsc1-c1ccc(CNC(=O)[C@@H]2C[C@@H](O)CN2C(=O)[C@@H](NC(=O)C2(F)CC2)C(C)(C)C)c(OCCOCCC(=O)N2CCN(c3nnc(-c4cnc(-c5ccc6cc(C#N)cnn56)cc4NC(C)C)s3)CC2)c1 [Example 47, (2S,4R)—N-(2-(2-(3-(4-(5-(6-(3-cyanopyrrolo[1,2-b]pyridazin-7-yl)-4-(isopropylamino)pyridin-3-yl)-1,3,4-thiadiazol-2-yl)piperazin-1-yl)-3-oxopropoxy)ethoxy)-4-(4-methylthiazol-5-yl)benzyl)-1-((S)-2-(1-fluorocyclopropane-1-carboxamido)-3,3-dimethylbutanoyl)-4-hydroxypyrrolidine-2-carboxamide] | none of Compounds 13, 24, 47, and 35 displayed neosubstrate degradation | none of Compounds 13, 24, 47, and 35 displayed neosubstrate degradation
